Laboratory results reported in patent US20220323427A1, “SOMATOSTATIN RECEPTOR TYPE 5 AGONIST FOR THE TREATMENT OF HYPERINSULINISM” (Crinetics Pharmaceuticals, Inc., priority 2021, published 2022).

Experiments:
[1] = tested on: glyburide-induced hyperinsulinemic hypoglycemia; experiment: Glyburide-induced hyperinsulinemic hypoglycemia model in rats; type: in vivo, Sprague Dawley rats; details: 30 mg/kg oral, adult male rats; mean baseline 168 mg/dL
Procedure: Sulfonylurea drugs, such as glyburide, inhibit KATP channels and can be used in rat preclinical models to mimic the disease state of congenital HI patients with KATP channel mutations.
This model of glyburide-induced hyperinsulinemic hypoglycemia was used to assess the pharmacodynamic effects of Compound 1 after a single administration in male and female adult rats and male neonatal rats.
Glyburide was administered to raise insulin levels and induce hypoglycemia in adult male Sprague Dawley rats.
Two hours following glyburide administration, Compound 1 was given by oral gavage and blood glucose was monitored over 5 hours.

[2] = fasting conditions; cited from earlier work
human pancreatic islets = experiment: Glucagon secretion in perifused human islets; type: cell-based; details: islets from a healthy donor; G3+Arg
Procedure: For glucagon secretion, glucose (Boston BioProducts #BM-675) solutions, G3, G16.7 and G3 plus 20 mM arginine (Sigma #A8094; G3+Arg) were prepared in PB [24 mM NaHCO3 (Fisher Scientific #S233-500), 120 mM NaCl (Spectrum Chemical #S0155), 4.8 mM KCl (Fisher Scientific #P217-500), 2.5 mM CaCl2 (Fisher Scientific #C614-500), 1.2 mM MgCl2 (Sigma #M8266), 10 mM HEPES (Gibco #15630-080) and 0.1% BSA (EMD Millipore #12-675-100GM)]. Various concentrations of Compound 1 and diazoxide (Sigma #D9035) were prepared in G16.7 or in G3+Arg. On the day of the assay, ten perifusion chambers (Biorep #Peri-chamber) were loaded with a bead suspension (Biorep #Peri-beads-20) followed by 300 IEQ and another layer of bead suspension. Chambers were filled with PB, placed in the perifusion equipment and equilibrated with G3 for 74 min (flow rate=230 μL/min) followed by the perifusion steps for glucagon secretion shown in Table 3. […] Glucagon concentration was quantified using the commercially-available Mercodia Glucagon ELISA (Mercodia #10-1271-01) kit. undiluted perfusate samples were added to the supplied pre-coated assay plates. […] The optical density of each well was determined at 450 nm in a Tecan M1000Pro (Tecan, Switzerland) multiplate reader. Glucagon concentrations were calculated by regression to the standard curve using GraphPad Prism (GraphPad, San Diego, Calif.).

[3] = cited from earlier work

SMILES	Blood glucose level after glyburide [1] [mg/dL]	half-life [2]	Inhibition of arginine-stimulated glucagon secretion (human pancreatic islets)	Patients treated and considered responsive who continue to have hypoglycemia ([3]; 2020 Congenital HI International Global Registry report) [%]	Patients who experienced pulmonary hypertension ([3]; one study) [%]	Side effect: fluid retention ([3]; patients)	Side effect: gastrointestinal side effects including feeding aversion ([3]; patients)	Side effect: severe hypertrichosis ([3]; patients)
COc1ccc(Cl)cc1C(=O)NCCc1ccc(S(=O)(=O)NC(=O)NC2CCCCC2)cc1 [glyburide, reference compound]	70	approximately 10 hours	–	–	–	–	–	–
CC1=NS(=O)(=O)c2cc(Cl)ccc2N1 [diazoxide]	–	–	up to 57%	30	4.8	approximately 30%	approximately 12%	approximately 52%
